Measured values published in PMC9060532 (RSC Advances, 2019).
Each block holds one molecule with its values, some of them ahead of it.

Key:
[1] = Metabolite identification in rat plasma, urine and feces by HPLC-Q-TOF MS/MS; format: in vivo, Sprague-Dawley rats; conditions: rats, bornyl caffeate ig 30 mg kg^−1; p plasma, u urine, f feces
[2] = Pharmacokinetic study in rats, plasma by HPLC-Ion-Trap-MS/MS; format: in vivo, Sprague-Dawley rats
[3] = Stability of bornyl caffeate and caffeic acid in rat plasma; format: in vitro ADME; conditions: for Autosampler stability Concentration measured / Autosampler stability Stability (%): processed rat plasma QC, autosampler 20 °C 24 h; for Autosampler stability Concentration measured / Autosampler stability Stability (%) / Short-term Concentration measured / Short-term Stability (%) / Freeze–thaw Concentration measured / Freeze–thaw Stability (%) / Long-term Concentration measured / Long-term Stability (%): n = 6; for Short-term Concentration measured / Short-term Stability (%) / Freeze–thaw Concentration measured / Freeze–thaw Stability (%) / Long-term Concentration measured / Long-term Stability (%): rat plasma; for Short-term Concentration measured / Short-term Stability (%): room temperature 24 h; for Freeze–thaw Concentration measured / Freeze–thaw Stability (%): three freeze–thaw cycles (−20 °C 24 h); for Long-term Concentration measured / Long-term Stability (%): −20 °C 3 weeks
[4] = CA in rat plasma after CA ig 17 mg kg^−1, n = 6
[5] = Sprague-Dawley, rat, plasma, po, 17 mg/kg

SMILES: COc1ccc(/C=C/C(=O)O)cc1O [M14b, Isoferulic acid]
- Location (samples in which parent or metabolite was detected) [1]: observed in all the three kinds of samples

SMILES: O=C(O)CCc1ccc(O)c(O)c1 [M4, Dihydrocaffeic acid]
- Location (samples in which parent or metabolite was detected) [1]: observed in all the three kinds of samples

The next lines start with the values.

- Location (samples in which parent or metabolite was detected) [1]: found in rat feces alone
SMILES: COc1cc(CCC(=O)O)ccc1O [M9a, Dihydroferulic acid]

- T 1/2Ka [2, 4]: 7.2 ± 1.8 min
- T 1/2α1 [2, 4]: 24 ± 5.4 min
- AUC(0-inf) [2, 5]: 821 ± 86.2 ng·h/mL
- AUC(0-t) [2, 5]: 787 ± 80.3 ng·h/mL
- Cmax [2, 5]: 450 ± 13.8 ng/mL
- Tmax [2, 5]: 15 ± 0.6 min
- Autosampler stability Concentration measured ([3]; 4 ng mL^−1 added): 3.93 ± 0.16 ng/mL
- Autosampler stability Stability (%) ([3]; 4 ng mL^−1 added): 98.25%
- Autosampler stability Concentration measured ([3]; 200 ng mL^−1 added): 191.9 ± 6.19 ng/mL
- Autosampler stability Stability (%) ([3]; 200 ng mL^−1 added): 95.95%
- Autosampler stability Concentration measured ([3]; 3000 ng mL^−1 added): 2991.17 ± 12.48 ng/mL
- Autosampler stability Stability (%) ([3]; 3000 ng mL^−1 added): 99.7%
- Short-term Concentration measured ([3]; 4 ng mL^−1 added): 3.97 ± 0.15 ng/mL
- Short-term Stability (%) ([3]; 4 ng mL^−1 added): 99.38%
- Freeze–thaw Concentration measured ([3]; 4 ng mL^−1 added): 3.77 ± 0.14 ng/mL
- Freeze–thaw Stability (%) ([3]; 4 ng mL^−1 added): 94.29%
- Long-term Concentration measured ([3]; 4 ng mL^−1 added): 4.03 ± 0.18 ng/mL
- Long-term Stability (%) ([3]; 4 ng mL^−1 added): 100.79%
- Short-term Concentration measured ([3]; 200 ng mL^−1 added): 196.41 ± 4.57 ng/mL
- Short-term Stability (%) ([3]; 200 ng mL^−1 added): 98.2%
- Freeze–thaw Concentration measured ([3]; 200 ng mL^−1 added): 202.1 ± 6.48 ng/mL
- Freeze–thaw Stability (%) ([3]; 200 ng mL^−1 added): 101.05%
- Long-term Concentration measured ([3]; 200 ng mL^−1 added): 197.22 ± 6.86 ng/mL
- Long-term Stability (%) ([3]; 200 ng mL^−1 added): 98.61%
- Short-term Concentration measured ([3]; 3000 ng mL^−1 added): 3009.81 ± 6.45 ng/mL
- Short-term Stability (%) ([3]; 3000 ng mL^−1 added): 100.33%
- Freeze–thaw Concentration measured ([3]; 3000 ng mL^−1 added): 2835.08 ± 9.86 ng/mL
- Freeze–thaw Stability (%) ([3]; 3000 ng mL^−1 added): 94.23%
- Long-term Concentration measured ([3]; 3000 ng mL^−1 added): 2990.99 ± 4.97 ng/mL
- Long-term Stability (%) ([3]; 3000 ng mL^−1 added): 99.7%
- stability in plasma (in words) ([3]; room temperature for 24 h, −20 °C for 3 weeks, or autosampler for 24 h): stable
SMILES: O=C(O)/C=C/c1ccc(O)c(O)c1 [Caffeic acid]

- Location (samples in which parent or metabolite was detected) [1]: urine and feces
SMILES: O=C(O)c1ccccc1 [M8, Benzoic acid]
